Measured values as given in patent publication US5200409A, “Composition and use of substituted 1,3-dithiolo-and 1,4-dithiinoquinoxalines as an antimicrobial” (The Dow Chemical Company, priority 1992, dated 1993).
≈ marks a conversion by molar mass, not a printed value. Like-named read-outs stand apart in the source and are kept apart here.

Key:
marine organisms = test: Marine antifouling rating of coated test panels exposed to the marine environment; conditions: scale 10 (completely free of growth) to 0 (completely covered); for Marine Antifouling Rating, 3 Week Test, Top Panel / Marine Antifouling Rating, 3 Week Test, Bottom Panel: 3 weeks; for Marine Antifouling Rating, 3 Week Test, Top Panel / Marine Antifouling Rating, 6 Week Test, Top Panel: topside, white background; for Marine Antifouling Rating, 3 Week Test, Bottom Panel / Marine Antifouling Rating, 6 Week Test, Bottom Panel: underside, black background; for Marine Antifouling Rating, 6 Week Test, Top Panel / Marine Antifouling Rating, 6 Week Test, Bottom Panel: 6 weeks
Procedure: Test panels are prepared from clear, rigid polyvinyl chloride film that is 0.381×10^-3 m thick and has one textured surface. The test panels are 0.1524 m by 0.1524 m squares that have 0.00635 m holes punched at corners on 0.127 m centers. A 0.102 square template, with a 0.067 m diameter hole at the center, is attached to the center of the textured surface of the test panels.
A candidate marine antifoulant compound (1.0 g) is stirred into a resinous latex binder (9.0 g). A portion of the compound/binder mixture (1.5 g) is added to the center of the test panel and uniformly spread over the circular area inside the template.
Water is added dropwise as needed to properly spread the compound/binder mixture. The template prevents the compound/binder mixture from spreading beyond the uncovered area. The test panel is allowed to sit for between ten to thirty minutes until the edge of the spread compound/binder mixture has dried. The template is then removed. The test panel is then allowed to dry for 8 to 12 hours at room temperature.
Two test panels are prepared for each candidate marine antifoulant compound. Two control test panels are also prepared by only treating with the resinous latex binder. One test panel of each candidate marine […] compound is attached over a white background to the topside of an exposure support apparatus. The second test panel is attached over a black background to the underside of the exposure support apparatus. The exposure support apparatus is placed horizontally 0.0254 m under a marine surface with the white background topside facing up. The exposure support apparatus is exposed to the marine environment for both 3 and 6 weeks during which time the control test panels become substantially covered with mature marine organism growth on both the topside and underside exposures.
After being removed from the exposure support apparatus, each test panel is inspected and rated for marine organism growth on both the treated and untreated areas of the test panel. The marine organisms present on the treated and untreated areas are noted. The presence of algea spores and bacterial slime are noted but not included in rating each test panel. The test panels are rated on a scale from 10 (representing completely free of marine organism growth) to 0 (representing completely covered with marine organism growth).

Bacillus subtilis (Bs) = test: Minimum inhibitory concentration (MIC) in nutrient agar; assay type: cell-based, Bacillus subtilis ATCC 8473
Method in brief: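 Nutrient agar, pH 6.8 and 8.2; compound incorporated at 48° C, final 1.0–500 ppm; plates dried 24 h; Steer's replicator inoculum 10^8 CFU/ml from 24 h broth cultures (30° C, shaken); incubation 30° C, 48 h; endpoint = prevention of growth.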

[1] = pH 6.8, nutrient agar, 30° C., 48 hours, read-out: Minimum Inhibitory Concentration, Bs
[2] = 48 h, pH 6.8, read-out: Minimum Inhibitory Concentration, Bs
[3] = 48 h, pH 8.2, read-out: Minimum Inhibitory Concentration, Bs

Row | SMILES | Marine Antifouling Rating, 3 Week Test, Top Panel (marine organisms) | Marine Antifouling Rating, 3 Week Test, Bottom Panel (marine organisms) | Marine Antifouling Rating, 6 Week Test, Top Panel (marine organisms) | Marine Antifouling Rating, 6 Week Test, Bottom Panel (marine organisms) | MIC (Bacillus subtilis (Bs); [1]) [µg/mL] | MIC (Bacillus subtilis (Bs); pH 8.2, nutrient agar, 30° C., 48 hours, read-out: Minimum Inhibitory Concentration, Bs) [µg/mL] | MIC (Bacillus subtilis (Bs); [2]) [µg/mL] | MIC (Bacillus subtilis (Bs); [3]) [µg/mL]
1 | N#CC1=C(C#N)Sc2nc3cc([N+](=O)[O-])ccc3nc2S1 [A, 7-nitro-1,4-dithiino-(2,3-b)-quinoxaline-2,3-dicarbonitrile] | 9 | 9 | 8 | 3 | < 10 | 100 (≈ 319 µM) |  | 
2 | N#CC1=C(C#N)Sc2nc3cc([N+](=O)[O-])c([N+](=O)[O-])cc3nc2S1 [B, 7,8-Dinitro-1,4-dithiino-(2,3-b)quinoxaline-2,3-dicarbonitrile] | 6 | 3 | 3 | 0 |  |  | 500 (≈ 1400 µM) | 25 (≈ 69.8 µM)
3 | N#CC1=C(C#N)Sc2nc3cc(Cl)ccc3nc2S1 [C, 7-chloro-1,4-dithiino-(2,3-b)-quinoxaline-2,3-dicarbonitrile] | 0 | 9 | 5 | 0 | 25 (≈ 82.6 µM) |  |  | 25 (≈ 82.6 µM)
4 | Cc1ccc2nc3c(nc2c1)SC(C#N)=C(C#N)S3 [D, 7-Methyl-1,4-dithiino-(2,3-b)quinoxaline-2,3-dicarbonitrile] | 4 | 3 | 3 | 0 | 25 (≈ 88.5 µM) |  |  | 250 (≈ 885 µM)
5 | N#CC1=C(C#N)Sc2nc3ccccc3nc2S1 [E, 1,4-dithiino-(2,3-b)-quinoxaline-2,3-dicarbonitrile] | 8 | 4 | 9 | 0 | 50 (≈ 186 µM) |  |  | > 500
6 | N#CC(C#N)=C1Sc2nc3ccc([N+](=O)[O-])cc3nc2S1 [L, 6-nitro-1,3-dithiolo-(4,5-b)-quinoxaline-2-ylidene-propanedinitrile] | 7 | 7 | 9 | 0 |  |  | 100 (≈ 319 µM) | > 500
7 | N#CC(C#N)=C1Sc2nc3cc([N+](=O)[O-])c([N+](=O)[O-])cc3nc2S1 [M, 6,7-dinitro-1,3-dithiolo-(4,5-b)-quinoxaline-2-ylidene-propanedinitrile] | 9 | 9 | 5 | 1 |  |  | 100 (≈ 279 µM) | 250 (≈ 698 µM)
8 | N#CC(C#N)=C1Sc2nc3ccc(Cl)cc3nc2S1 [O, 6-chloro-1,3-dithiolo-(4,5-b)-quinoxaline-2-ylidene-propanedinitrile] | 0 | 2 | 6 | 0 |  |  | > 500 | > 500
